This note sets out measurements from patent US8975406B2, “Compound useful for the treatment of degenerative and inflammatory diseases” (Galapagos N.V., priority 2011, dated 2015).

Some results are limits rather than exact numbers.

The target in assay [1] is T1, Recombinant human TYK2 catalytic domain (Homo sapiens, UniProt P29597).
T1 construct: catalytic domain (amino acids 871-1187; catalog number 08-147); GST; purchased Carna Biosciences 08-147
T1 sequence (P29597 871-1187): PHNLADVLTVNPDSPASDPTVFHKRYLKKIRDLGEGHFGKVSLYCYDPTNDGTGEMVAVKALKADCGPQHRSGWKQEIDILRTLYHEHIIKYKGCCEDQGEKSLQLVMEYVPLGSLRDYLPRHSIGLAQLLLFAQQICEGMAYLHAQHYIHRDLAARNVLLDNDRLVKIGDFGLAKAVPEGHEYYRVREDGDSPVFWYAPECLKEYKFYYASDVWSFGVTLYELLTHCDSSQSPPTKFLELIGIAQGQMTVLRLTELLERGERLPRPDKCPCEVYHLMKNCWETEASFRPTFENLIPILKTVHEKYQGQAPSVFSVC
As to the kind of experiment: TYK2 inhibition assay. The format is biochemical. Conditions: polyGT substrate, 33P-gamma-ATP filter assay, 0.1 μM ATP. On the procedure:
Recombinant human TYK2 catalytic domain (amino acids 871-1187; catalog number 08-147) was purchased from Carna biosciences. 4 ng of TYK2 was incubated with 12.5 μg polyGT substrate (Sigma catalog number P0275) in kinase reaction buffer (25 mM Hepes pH 7.2, 50 mM NaCl, 0.5 mM EDTA, 1 mM DTT, 5 mM MnCl2, 10 mM MgCl2, 0.1% Brij-35, 0.1 μM non-radioactive ATP, 0.125 μCi ^33P-gamma-ATP (Perkin Elmer, catalog number NEG602K001MC) final concentrations) with or without 5 μL containing test compound or vehicle (DMSO, 1% final concentration), in a total volume of 25 μL, in a polypropylene 96-well plate (Greiner, V-bottom). After 90 min at 30° C., reactions were stopped by adding 25 μL/well of 150 mM phosphoric acid. All of the terminated kinase reaction was transferred to prewashed (75 mM phosphoric acid) 96 well filter plates (Perkin Elmer catalog number 6005177) using a cell harvester (Perkin Elmer). Plates were washed 6 times with 300 μL per well of a 75 mM phosphoric acid solution and the bottom of the plates was sealed. 40 μL/well of Microscint-20 was added, the top of the plates was sealed and readout was performed using the Topcount (Perkin Elmer). Kinase activity was calculated by subtracting counts per min (cpm) obtained in the presence of a positive control inhibitor (10 μM staurosporine) from cpm obtained in the presence of vehicle. The ability of a test compound to inhibit this activity was determined as: Percentage inhibition=((cpm determined for sample with test compound present−cpm determined for sample with positive control inhibitor)divided by(cpm determined in the presence of vehicle−cpm determined for sample with positive control inhibitor))*100.
Dose dilution series were prepared for the compounds enabling the testing of dose-response effects in the TYK2 assay and the calculation of the IC50 for each compound. Each compound was routinely tested at concentration of 20 μM followed by a ⅓ serial dilution, 8 points (20 μM-6.67 μM-2.22 μM-740 nM-247 nM-82 nM-27 nM-9 nM) in a final concentration of 1% DMSO. When potency of compound series increased, more dilutions were prepared and/or the top concentration was lowered (e.g. 5 μM, 1 μM).

The test system of assay [2] is JAK-STAT signalling in HeLa cells. As to the kind of experiment: JAK-STAT signalling assay (pSTAT1(2)-luciferase reporter, OSM-triggered HeLa cells). The format is cell-based. Conditions: human OSM 33 ng/mL. As for the experimental part: HeLa cells were maintained in Dulbecco's Modified Eagle's Medium (DMEM) containing 10% heat inactivated fetal calf serum, 100 U/mL penicillin and 100 μg/mL streptomycin. HeLa cells were used at 70% confluence for transfection. 20,000 cells in 87 μL cell culture medium were transiently transfected with 40 ng pSTAT1(2)-luciferase reporter (Panomics), 8 ng of LacZ reporter as internal control reporter and 52 ng of pBSK using 0.32 μL Jet-PEI (Polyplus) as transfection reagent per well in 96-well plate format. After overnight incubation at 37° C., 5% CO2, transfection medium was removed. 81 μL of DMEM+1.5% heat inactivated fetal calf serum was added. 9 μL compound at 10× concentration was added for 60 min and then 10 μL of human OSM (Peprotech) at 33 ng/mL final concentration.
All compounds were tested in duplicate starting from 20 μM followed by a ⅓ serial dilution, 8 doses in total (20 μM-6.6 μM-2.2 μM-740 nM-250 nM-82 nM-27 nM-9 nM) in a final concentration of 0.2% DMSO.
After overnight incubation at 37° C., 5% CO2 cells were lysed by adding 100 μL lysis buffer/well (PBS, 0.9 mM CaCl2, 0.5 mM MgCl2, 10% Trehalose, 0.05% Tergitol NP9, 0.3% BSA).
40 μL of cell lysate was used to read β-galactosidase activity by adding 180 μL β-Gal solution (30 μl ONPG 4 mg/mL+150 μL β-Galactosidase buffer (0.06 M Na2HPO4, 0.04 M NaH2PO4, 1 mM MgCl2)) for 20 min. The reaction was stopped by addition of 50 μL Na2CO3 1 M. Absorbance was read at 405 nm.
Luciferase activity was measured using 40 μL cell lysate plus 40 μL of Steadylite® as described by the manufacturer (Perkin Elmer), on the Envision (Perkin Elmer).
Omitting OSM was used as a positive control (100% inhibition). As negative control 0.5% DMSO (0% inhibition) was used. The positive and negative controls were used to calculate z′ and ‘percent inhibition’ (PIN) values. Percentage inhibition=((fluorescence determined in the presence of vehicle−fluorescence determined for sample with test compound present)divided by(fluorescence determined in the presence of vehicle−fluorescence determined for sample without trigger))*100.
PIN values were plotted for compounds tested in dose-response and EC50 values were derived.

For the compound `O=C(NCCOc1ccccc1)c1ccc(-c2cccn3nc(NC(=O)C4CC4)cc23)cc1` [Compound 6, 4-(2-(cyclopropanecarboxamido)pyrazolo[1,5-a]pyridin-4-yl)-N-(2-phenoxyethyl)benzamide], the IC50 in assay [1] and in assay [2] was 101 to 500 nM throughout.
As for `CC(=O)Nc1cc2c(-c3ccc(CN4CCN(CC(F)(F)F)CC4)c(F)c3)cccn2n1` [Compound 28, N-(4-(3-fluoro-4-((4-(2,2,2-trifluoroethyl)piperazin-1-yl)methyl)phenyl)pyrazolo[1,5-a]pyridin-2-yl)acetamide], the IC50 in assay [1] fell in the range of 101 to 500 nM.
As to `O=C(Nc1cc2c(-c3ccc(OCc4ccccc4)cc3)cccn2n1)C1CC1` [Compound 2, N-(4-(4-(benzyloxy)phenyl)pyrazolo[1,5-a]pyridin-2-yl)cyclopropanecarboxamide], in assay [1], the IC50 was in the range of 101 to 500 nM.
Consider `CS(=O)(=O)C1CCN(Cc2ccc(-c3cccn4nc(NC(=O)C5CC5)c(Cl)c34)cc2F)CC1` [Compound 20, N-(3-chloro-4-(3-fluoro-4-((4-(methylsulfonyl)piperidin-1-yl)methyl)phenyl)pyrazolo[1,5-a]pyridin-2-yl)cyclopropanecarboxamide], for which the figures for the IC50 in assay [1] and in assay [2] were 0.01 to 100 nM and greater than 1000 nM, respectively.
With `CS(=O)(=O)C1CCN(Cc2ccc(-c3cccn4nc(NC(=O)C5CC5)c(Cl)c34)cc2)CC1` [Compound 19, N-(3-chloro-4-(4-((4-(methylsulfonyl)piperidin-1-yl)methyl)phenyl)pyrazolo[1,5-a]pyridin-2-yl)cyclopropanecarboxamide], the IC50 is 101 to 500 nM in assay [1] and greater than 1000 nM in assay [2].
On the same counts, the results for `O=C(Nc1cc2c(-c3ccc(CN4CCCCC45COC5)cc3)cccn2n1)C1CC1` [Compound 48, N-(4-(4-(2-oxa-5-azaspiro[3.5]nonan-5-ylmethyl)phenyl)pyrazolo[1,5-a]pyridin-2-yl)cyclopropanecarboxamide] are 101 to 500 nM and 501 to 1000 nM.
On the same counts, the results for `CC(=O)Nc1cc2c(-c3ccc(CN4CCS(=O)(=O)CC4)c(F)c3)cccn2n1` [Compound 27, N-{4-[4-(1,1-Dioxo-thiomorpholin-4-ylmethyl)-3-fluoro-phenyl]-pyrazolo[1,5-a]pyridin-2-yl}-acetamide] are 0.01 to 100 nM and 101 to 500 nM.
For `O=C(Nc1nn2cccc(-c3ccc(CN4CCS(=O)(=O)CC4)cc3)c2c1F)C1CC1` [Compound 11, Cyclopropanecarboxylic acid {4-[4-(1,1-dioxo-thiomorpholin-4-ylmethyl)-phenyl]-3-fluoro-pyrazolo[1,5-a]pyridin-2-yl}-amide], the IC50 was 0.01 to 100 nM in assay [1] and 501 to 1000 nM in assay [2].
Consider `COc1ccc(-c2cccn3nc(NC(=O)C4CC4)c(-c4ccccc4)c23)cc1` [Compound 7, N-(4-(4-methoxyphenyl)-3-phenylpyrazolo[1,5-a]pyridin-2-yl)cyclopropanecarboxamide], for which the IC50 in assay [1] was greater than 1000 nM.
Turning to `CC(=O)Nc1cc2c(-c3cnc(CN4CCN(S(C)(=O)=O)CC4)c(F)c3)cccn2n1` [Compound 26, N-(4-(5-fluoro-6-((4-(methylsulfonyl)piperazin-1-yl)methyl)pyridin-3-yl)pyrazolo[1,5-a]pyridin-2-yl)acetamide], the IC50 in assay [1] and in assay [2] was greater than 1000 nM in each case.
`CC(=O)Nc1cc2c(-c3ccc(CN4CCN(S(C)(=O)=O)C[C@H]4C)cc3)cccn2n1` [Compound 24, (R)-N-(4-(4-((2-methyl-4-(methylsulfonyl)piperazin-1-yl)methyl)phenyl)pyrazolo[1,5-a]pyridin-2-yl)acetamide]: the figures for the 50% inhibitory concentration (IC50) in assay [1] and in assay [2] were 501 to 1000 nM and greater than 1000 nM, respectively.
For `O=C(NCCc1ccccc1)c1ccc(-c2cccn3nc(NC(=O)C4CC4)cc23)cc1` [Compound 5, 4-(2-(cyclopropanecarboxamido)pyrazolo[1,5-a]pyridin-4-yl)-N-phenethylbenzamide], in that order: 0.01 to 100 nM and 101 to 500 nM.
On to `CC(c1ccc(-c2cccn3nc(NC(=O)C4CC4)cc23)cc1)N1CCN(S(C)(=O)=O)CC1` (centres unmarked) [Compound 43, N-(4-(4-(1-(4-(methylsulfonyl)piperazin-1-yl)ethyl)phenyl)pyrazolo[1,5-a]pyridin-2-yl)cyclopropanecarboxamide], for which the IC50 in assay [1] was 0.01 to 100 nM.
`O=C(Nc1cc2c(-c3ccc(OCc4cccnc4)cc3)cccn2n1)C1CC1` [Compound 8, N-(4-(4-(pyridin-3-ylmethoxy)phenyl)pyrazolo[1,5-a]pyridin-2-yl)cyclopropanecarboxamide] showed an IC50 in assay [2] greater than 1000 nM.
Consider `CS(=O)(=O)N1CCN(Cc2ccc(-c3cccn4nc(NC(=O)C5CC5)cc34)cn2)CC1` [Compound 23, N-(4-(6-((4-(methylsulfonyl)piperazin-1-yl)methyl)pyridin-3-yl)pyrazolo[1,5-a]pyridin-2-yl)cyclopropanecarboxamide], for which the IC50 in assay [1] was 101 to 500 nM; in assay [2] it was greater than 1000 nM.
Turning to `CC(=O)Nc1cc2c(-c3ccc(CC(=O)N4CCOCC4)cc3)cccn2n1` [Compound 36, N-(4-(4-(2-morpholino-2-oxoethyl)phenyl)pyrazolo[1,5-a]pyridin-2-yl)acetamide], the IC50 in assay [1] was in the range of 0.01 to 100 nM.
For the compound `CC(=O)Nc1cc2c(-c3ccc(CN4CCC(S(C)(=O)=O)CC4)c(F)c3)cccn2n1` [Compound 29, N-(4-(3-fluoro-4((4-(methylsulfonyl)piperidin-1-yl)methyl)phenyl)pyrazolo[1,5-a]pyridin-2-yl)acetamide], the IC50 in assay [1] is 0.01 to 100 nM; in assay [2], greater than 1000 nM.
For `O=C(Nc1nn2cccc(-c3ccc(CN4CCS(=O)(=O)CC4)cc3)c2c1Cl)C1CC1` [Compound 13, Cyclopropanecarboxylic acid {4-[4-(1,1-dioxo-thiomorpholin-4-ylmethyl)-phenyl]-3-chloro-pyrazolo[1,5-a]pyridin-2-yl}-amide], in that order: 0.01 to 100 nM and 501 to 1000 nM.
As to `CC(=O)Nc1cc2c(-c3ccc(CC(=O)N4CCCCC4)cc3)cccn2n1` [Compound 35, N-(4-(4-(2-oxo-2-(piperidin-1-yl)ethyl)phenyl)pyrazolo[1,5-a]pyridin-2-yl)acetamide], the IC50 in assay [1] lay within 0.01 to 100 nM.
Still for that read-out and setting: to `CC(=O)Nc1cc2c(-c3ccc(CC(=O)N4COCC4(C)C)cc3)cccn2n1` [Compound 38, N-(4-(4-(2-(4,4-dimethyloxazolidin-3-yl)-2-oxoethyl)phenyl)pyrazolo[1,5-a]pyridin-2-yl)acetamide] belongs 101 to 500 nM.
